Measurements from ChEMBL document CHEMBL1240412, “Synthesis and structure activity relationship studies of novel Staphylococcus aureus Sortase A inhibitors” (Eur J Med Chem, 2010).

assay: Inhibition of Staphylococcus aureus Sortase Adelta59 by FRET assay

Compound	IC50 [µM]
COC(=O)c1cc(NC(=O)/C=C\c2cccs2)ccc1N1CCOCC1	61
COC(=O)c1cc(NC(=O)/C=C/c2ccco2)ccc1N1CCOCC1	58
COC(=O)c1cc(NC/C=C/c2cccs2)ccc1N1CCOCC1	249
O=C(O)c1cc(NC/C=C/c2cccs2)ccc1N1CCOCC1	> 600
COC(=O)c1cc(NC(=O)C#Cc2cccs2)ccc1N1CCOCC1	165
O=Cc1cc(NC(=O)/C=C/c2cccs2)ccc1N1CCOCC1	77
O=C(C#Cc1cccs1)Nc1ccc(N2CCOCC2)c(C(=O)O)c1	183
O=C(/C=C/c1cccs1)Nc1ccc(N2CCOCC2)c(CO)c1	73
O=C(/C=C/c1ccco1)Nc1ccc(N2CCCCC2)c(C(=O)O)c1	463
O=C(CCc1ccco1)Nc1ccc(N2CCOCC2)c(C(=O)O)c1	> 600
CN(C(=O)/C=C/c1ccco1)c1ccc(N2CCOCC2)c(C(=O)O)c1	> 600
O=C(/C=C\c1cccs1)Nc1ccc(N2CCOCC2)c(C(=O)O)c1	154
O=C(/C=C/c1ccco1)Nc1ccc(N2CCOCC2)c(CO)c1	111
COC(=O)c1cc(NC(=O)CCc2ccco2)ccc1N1CCOCC1	> 600
COC(=O)c1cc(N(C)C(=O)/C=C/c2cccs2)ccc1N1CCOCC1	571
O=C(CCc1cccs1)Nc1ccc(N2CCOCC2)c(C(=O)O)c1	> 600
COC(=O)c1cc(N(C)C(=O)/C=C/c2ccco2)ccc1N1CCOCC1	514
COC(=O)c1cc(NC(=O)/C=C/c2ccco2)ccc1N1CCCCC1	131
O=Cc1cc(NC(=O)/C=C/c2ccco2)ccc1N1CCOCC1	107
NC(=O)c1cc(NC(=O)/C=C/c2cccs2)ccc1N1CCOCC1	105
O=C(/C=C/c1cccs1)Nc1ccc(N2CCCCC2)c(C(=O)O)c1	181
COC(=O)c1cc(NC(=O)CCc2cccs2)ccc1N1CCOCC1	> 600
CN(C(=O)/C=C/c1cccs1)c1ccc(N2CCOCC2)c(C(=O)O)c1	> 600
O=C(/C=C/c1cccs1)Nc1ccc(N2CCOCC2)c(C(=O)O)c1	75
COC(=O)c1cc(NC(=O)/C=C/c2cccs2)ccc1N1CCCCC1	92
O=C(/C=C/c1ccco1)Nc1ccc(N2CCOCC2)c(C(=O)O)c1	181
COC(=O)c1cc(NC(=O)/C=C/c2cccs2)ccc1N1CCOCC1	71
